Calls of active or inactive are those of the source. The rule behind the calls is not given here.
Tests used:
3T3-L1 [1] = assay: Induction of DNA damage in mouse 3T3-L1 preadipocytes assessed as effect on gammaH2AX level at 20 uM incubated for 24 hrs by Western blot analysis; type: functional, cell-based
3T3-L1 [2] = assay: Downregulation of C/EBPbeta protein expression in mouse 3T3-L1 preadipocytes at 0.02 to 0.5 uM measured after 3 days by Western blot analysis; type: functional, cell-based; conditions: dose 0.02-0.5 µM, time 3.0 day
3T3-L1 [3] = assay: Activation of AMPK signaling pathway in mouse 3T3-L1 preadipocytes assessed as upregulation of LKB1 phosphorylation at 0.02 to 0.5 uM measured after 2 hrs by Western blot analysis; type: cell-based; conditions: filed as activator, dose 0.02-0.5 µM
[4] = AUC (0 to infinity) in Sprague-Dawley rat at 2 mg/kg, iv measured upto 24 hrs by LC-MS/MS analysis; type: ADME, organism-based; conditions: in vivo
[5] = MRT (0 to t) in Sprague-Dawley rat at 2 mg/kg, iv measured upto 24 hrs by LC-MS/MS analysis; type: ADME, organism-based; conditions: in vivo
[6] = Tmax in Sprague-Dawley rat at 5 mg/kg, po measured upto 24 hrs by LC-MS/MS analysis; type: ADME, organism-based; conditions: in vivo
[7] = Cmax in Sprague-Dawley rat at 5 mg/kg, po measured upto 24 hrs by LC-MS/MS analysis; type: ADME, organism-based; conditions: in vivo
[8] = Volume of distribution at steady state (normalized by bioavailability) in Sprague-Dawley rat at 5 mg/kg, po measured upto 24 hrs by LC-MS/MS analysis; type: ADME, organism-based; conditions: in vivo, read-out: Vz/F
[9] = Apparent oral clearance in Sprague-Dawley rat at 5 mg/kg, po measured upto 24 hrs by LC-MS/MS analysis; type: ADME, organism-based; conditions: in vivo
[10] = Oral bioavailability (0 to infinity) in Sprague-Dawley rat at 5 mg/kg measured upto 24 hrs by LC-MS/MS analysis; type: ADME, organism-based; conditions: in vivo
3T3-L1 [11] = assay: Induction of mitochondrial respiration in mouse 3T3-L1 preadipocytes assessed as increase in oxygen consumption rate at 0.1 to 0.5 uM incubated for 24 hrs by seahorse XFe96 flux analyzer; type: functional, cell-based; conditions: dose 0.1-0.5 µM
[12] = Drug metabolism in Sprague-Dawley rat plasma assessed as 2-(4-((2-cyclopentylethyl)amino)quinazolin-2-yl)-1H-indole-3-carbaldehyde formation at 5 mg/kg, po measured upto 24 hrs by LC-MS analysis; type: ADME, organism-based; conditions: in vivo
[13] = Metabolic stability in mouse liver microsomes assessed as compound remaining at 5 uM measured after 80 mins in presence of NADPH by LC-MS analysis; type: ADME, Microsome; conditions: 1.333 h
Mus musculus [14] = assay: Anti-obesity activity in high-fat diet induced male C57BL/6J mouse model assessed as mitigation of weight gain at 20 mg/kg, po administered daily for 2 weeks; type: functional, organism-based
Mus musculus [15] = assay: Anti-obesity activity in high-fat diet induced male C57BL/6J mouse model assessed as reduction in food uptake at 20 mg/kg, po administered daily for 2 weeks; type: functional, organism-based
[16] = Hepatotoxicity in male C57BL/6J mouse assessed as effect on ALT level at 20 mg/kg, po administered daily and measured after 2 weeks; type: toxicity, organism-based; conditions: in vivo, 336 h
[17] = Nephrotoxicity in male C57BL/6J mouse assessed as effect on cre level at 20 mg/kg, po administered daily and measured after 2 weeks; type: toxicity, organism-based; conditions: in vivo, 336 h
Mus musculus [18] = assay: Anti-obesity activity in high-fat and high-cholesterol diet induced male C57BL/6J mouse model assessed as decrease in fat mass content at 10 mg/kg, ip administered every other day for 6 weeks; type: functional, organism-based
Mus musculus [19] = assay: Anti-obesity activity in high-fat and high-cholesterol diet induced male C57BL/6J mouse model assessed as attenuation of HFC diet induced liver weight at 5 to 10 mg/kg, ip administered every other day for 6 weeks; type: functional, organism-based; conditions: dose 5-10 mg/kg
Mus musculus [20] = assay: Anti-obesity activity in high-fat and high-cholesterol diet induced male C57BL/6J mouse model assessed as improvement in glucose metabolism at 10 mg/kg, ip administered every other day for 4 weeks by glucose tolerance test; type: functional, organism-based
Mus musculus [21] = assay: Anti-obesity activity in high-fat and high-cholesterol diet induced male C57BL/6J mouse model assessed as reduction in size of white adipocytes at 5 to 10 mg/kg, ip administered every other day for 6 weeks by H and E staining based analysis; type: functional, organism-based
Mus musculus [22] = assay: Anti-obesity activity in high-fat and high-cholesterol diet induced DIO mouse model assessed as decrease in ALT level at 10 mg/kg, ip administered everyday for 6 weeks (reference value: 48.6+/-13.0 U/L); type: functional
Mus musculus [23] = assay: Anti-obesity activity in high-fat and high-cholesterol diet induced DIO mouse model assessed as decrease in AST level at 10 mg/kg, ip administered everyday for 6 weeks (reference value: 133.3+/-8.5 U/L); type: functional
Mus musculus [24] = assay: Anti-obesity activity in high-fat and high-cholesterol diet induced DIO mouse model assessed as decrease in TCHOL level at 10 mg/kg, ip administered everyday for 6 weeks (reference value: 4.1+/-0.7 mM); type: functional
Mus musculus [25] = assay: Anti-obesity activity in high-fat and high-cholesterol diet induced DIO mouse model assessed as decrease in TG level at 10 mg/kg, ip administered everyday for 6 weeks (reference value: 1.2+/-0.1 mM); type: functional
Mus musculus [26] = assay: Anti-obesity activity in high-fat and high-cholesterol diet induced DIO mouse model assessed as decrease in HDL-C level at 10 mg/kg, ip administered everyday for 6 weeks (reference value: 2.3+/-0.2 mM); type: functional
Mus musculus [27] = assay: Anti-obesity activity in high-fat and high-cholesterol diet induced DIO mouse model assessed as decrease in Glu level at 10 mg/kg, ip administered everyday for 6 weeks (reference value: 7.2+/-1.6 mM); type: functional
Mus musculus [28] = assay: Anti-obesity activity in high-fat and high-cholesterol diet induced DIO mouse model assessed as decrease in urea level at 10 mg/kg, ip administered everyday for 6 weeks (reference value: 13.2+/-1.7 mM); type: functional
Mus musculus [29] = assay: Anti-obesity activity in high-fat and high-cholesterol diet induced DIO mouse model assessed as decrease in ALB level at 10 mg/kg, ip administered everyday for 6 weeks (reference value: 37.6+/-2.5 g/L); type: functional
Mus musculus [30] = assay: Anti-obesity activity in high-fat and high-cholesterol diet induced DIO mouse model assessed as decrease in ALT level at 5 mg/kg, ip administered everyday for 6 weeks (reference value: 48.6+/-13.0 U/L); type: functional
Mus musculus [31] = assay: Anti-obesity activity in high-fat and high-cholesterol diet induced DIO mouse model assessed as decrease in TG level at 5 mg/kg, ip administered everyday for 6 weeks (reference value: 1.2+/-0.1 mM); type: functional
Mus musculus [32] = assay: Anti-obesity activity in high-fat and high-cholesterol diet induced DIO mouse model assessed as decrease in HDL-C level at 5 mg/kg, ip administered everyday for 6 weeks (reference value: 2.3+/-0.2 mM); type: functional
Mus musculus [33] = assay: Anti-obesity activity in high-fat and high-cholesterol diet induced DIO mouse model assessed as decrease in Glu level at 5 mg/kg, ip administered everyday for 6 weeks (reference value: 7.2+/-1.6 mM); type: functional
Mus musculus [34] = assay: Anti-obesity activity in high-fat and high-cholesterol diet induced DIO mouse model assessed as decrease in ALB level at 5 mg/kg, ip administered everyday for 6 weeks (reference value: 37.6+/-2.5 g/L); type: functional

## CC(=O)N/N=C/c1c(-c2nc(NCCN3CCCC3)c3ccccc3n2)[nH]c2ccccc12
3T3-L1 [1]
  Activity: Active
3T3-L1 [2]
  Activity: Active
3T3-L1 [3]
  Activity: Active
[4]
  AUC(0-inf): 266 ng·h/mL
[5]
  MRT last at 24 h: 8.9 h
[6]
  Tmax: 10 h
[7]
  Cmax: 8.2 ng/mL
[8]
  Vd/F: 620 L/kg
[9]
  CL/F: 297 mL/min/kg
[10]
  bioavailability: 45.7%
3T3-L1 [11]
  Activity: Active
[12]
  Drug metabolism: Metabolite_Detected
[13]
  Stability: Stable
Mus musculus [14]
  Activity: Active
Mus musculus [15]
  Activity: Active
[16]
  Activity: Non-Toxic
[17]
  Activity: Non-Toxic
Mus musculus [18]
  Activity: Active
Mus musculus [19]
  Activity: Active
Mus musculus [20]
  Activity: Active
Mus musculus [21]
  Activity: Active
Mus musculus [22]
  Activity: 40.1 U/L
Mus musculus [23]
  Activity: 131.1 U/L
Mus musculus [24]
  Activity: 3.8 mM
Mus musculus [25]
  Activity: 1.1 mM
Mus musculus [26]
  Activity: 2.9 mM
Mus musculus [27]
  Activity: 4.3 mM
Mus musculus [28]
  Activity: 11.3 mM
Mus musculus [29]
  Activity: 34.8 g/L
Mus musculus [30]
  Activity: 44.3 U/L
Mus musculus [31]
  Activity: 1 mM
Mus musculus [32]
  Activity: 3.1 mM
Mus musculus [33]
  Activity: 6.5 mM
Mus musculus [34]
  Activity: 37.4 g/L

— ChEMBL document CHEMBL5523750, “Development of Novel N-Acylhydrazone Derivatives with High Anti-obesity Activity and Improved Safety by Exploring the Pharmaceutical Properties of Aldehyde Group” (J Med Chem, 2024)
